# Patent US20230331827A1, “POTASSIUM CHANNEL INHIBITORS” (priority 2017, published 2023)
# Tested on: trypsin
# Assay: Phage TRF binding assay on immobilised biotinylated trypsin (monoclonal phage ELISA)
# Details: presented on phage as direct N-terminus gene-III fusion
# Procedure: Phage display technology facilitates isolation of binders to any given target from large combinatorial repertoires based on proteins and peptides that can be presented on the surface of filamentous phage^105. In order to isolate functional knottin-antibody fusions from the KnotBody libraries multiple rounds of phage display selections on trypsin (cognate antigen for the EETI-II donor) were carried out. Phage particles were prepared by rescuing KnotBody libraries using trypsin cleavable helper phage ^102,106Two rounds of phage display selections were performed on 10 µg/ml biotinylated trypsin immobilised on Streptavidin (for Round-1) or Neutravidin (for round-2) coated Maxisorp™ immunotubes (Thermo Scientific, Cat No. 444202). In both rounds of selection, phage libraries were pre-incubated with streptavidin coated paramagnetic beads (Thermo Fisher Scientific, Cat. No. 11205D). […] Polyclonal phage preparations from round-2 selection outputs were analysed for trypsin binding using a time resolved fluorescence (TRF) binding assay. In this assay, polyclonal phage binding to biotinylated trypsin immobilised on neutravidin (Thermo Fisher Scientific, Cat. No 31000) coated Maxisorp™ plates (Thermo Scientific, Cat. No. 437111) was detected using a mouse anti-M13 antibody (GE Healthcare, Cat. No. 27-9420-01) followed by europium conjugated anti-mouse antibody (Perkin Elmer, Cat. No. AD0124). […]
substance,measurement,value
"Ecballium elaterium trypsin inhibitor-II [EETI-II, reference compound]",binding to trypsin,no detectable binding to trypsin
